Assay results as given in patent US20060069132A1, “Azolecarboxamide herbicides” (priority 2004, published 2006).

Experiments:
Italian ryegrass = assay: Test C postemergence herbicide test; assay type: in vivo, Lolium multiflorum; settings: postemergence, scale 0 to 100
How it was run: (§1)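 Greenhouse test with a 12–14 day hold after application and visual comparison with controls. Emerged plants were 1- to 4-leaf stage (2–18 cm) when sprayed postemergence, and the paddy barnyardgrass was at 2 leaves under flooded conditions. 100 = complete control.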

morningglory = assay: Test B pre-/postemergence herbicide test; assay type: in vivo, Ipomoea coccinea
How it was run: (§2)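 Plants compared with untreated controls 13–15 days post-treatment and given a visual 0–100 injury score. Applications: preemergence to seeds; postemergence at 1- to 4-leaf (2–18 cm); paddy species flooded, 2-leaf stage. Vehicle non-phytotoxic, surfactant included.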

pigweed = assay: Test B pre-/postemergence herbicide test; assay type: in vivo, Amaranthus retroflexus
How it was run: (§3)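 Flooded paddy rice and barnyardgrass were treated at the 2-leaf stage; upland plantings received compound either on sown seed or on 1- to 4-leaf seedlings. All were kept 13–15 days in a greenhouse and scored visually, 0–100, relative to untreated plants.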

large crabgrass = assay: Test B pre-/postemergence herbicide test; assay type: in vivo, Digitaria sanguinalis
How it was run: as §3

winter barley = assay: Test C postemergence herbicide test; assay type: in vivo, Hordeum vulgare
How it was run: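 Plants were grown to the 1- to 4-leaf stage (2–18 cm) and then treated postemergence, or grown to the 2-leaf stage for the flooded paddy test. They were held in a greenhouse for 12 to 14 days and then scored by eye against controls, where 0 is no effect and 100 is complete control.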

downy bromegrass = assay: Test C postemergence herbicide test; assay type: in vivo, Bromus tectorum
How it was run: as §1

ducksalad = assay: Test B flooded paddy test; assay type: in vivo, Heteranthera limosa; settings: 1000 g ai/ha, scale 0 to 100 (0 no effect, 100 complete control)
How it was run: (§4)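 Formulated test chemicals went onto postemergence plants measuring 2 to 18 cm, at one to four leaves. For the paddy assay, species had reached two leaves. Scoring took place 13–15 days later by eye, relative to untreated plants, using 0 for no effect up to 100 for full control.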

windgrass = assay: Test C postemergence herbicide test; assay type: in vivo, Apera spica-venti; settings: postemergence, scale 0 to 100
How it was run: as §1

wheat [1] = assay: Test C postemergence herbicide test; assay type: in vivo, Triticum aestivum; settings: postemergence, scale 0 to 100
How it was run: as §1

blackgrass [2] = assay: Test B postemergence herbicide test; assay type: in vivo, Alopecurus myosuroides
How it was run: as §4

giant foxtail = assay: Test B pre-/postemergence herbicide test; assay type: in vivo, Setaria faberi
How it was run: as §3

wheat [3] = assay: Test B postemergence herbicide test; assay type: in vivo, Triticum aestivum; parameters: key to Wheat plant response rating: 0 = no effect, 100 = complete control
How it was run: as §4

velvetleaf = assay: Test B pre-/postemergence herbicide test; assay type: in vivo, Abutilon theophrasti
How it was run: as §3

corn = assay: Test B pre-/postemergence herbicide test; assay type: in vivo, Zea mays
How it was run: as §3

[4] = tested on: small flower umbrella sedge; assay: Test B flooded paddy test; assay type: in vivo, Cyperus difformis; settings: 1000 g ai/ha, scale 0 to 100 (0 no effect, 100 complete control)
How it was run: as §4

green foxtail = assay: Test C postemergence herbicide test; assay type: in vivo, Setaria viridis
How it was run: as §1

wild oat [5] = assay: Test B postemergence herbicide test; assay type: in vivo, Avena fatua
How it was run: as §4

barnyardgrass [6] = assay: Test B flooded paddy test; assay type: in vivo, Echinochloa crus-galli; settings: 1000 g ai/ha, scale 0 to 100 (0 no effect, 100 complete control)
How it was run: as §4

lambsquarters = assay: Test B pre-/postemergence herbicide test; assay type: in vivo, Chenopodium album
How it was run: as §3

blackgrass [7] = assay: Test C postemergence herbicide test; assay type: in vivo, Alopecurus myosuroides
How it was run: as §1

canarygrass = assay: Test C postemergence herbicide test; assay type: in vivo, Phalaris minor
How it was run: as §1

cocklebur = assay: Test B pre-/postemergence herbicide test; assay type: in vivo, Xanthium strumarium
How it was run: as §2

rice = assay: Test B flooded paddy test; assay type: in vivo, Oryza sativa; settings: 1000 g ai/ha, scale 0 to 100 (0 no effect, 100 complete control)
How it was run: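 After treating 2-leaf paddy plants or 2–18 cm postemergence plants (1 to 4 leaves) with formulated chemical, researchers kept them in a greenhouse for 13–15 days. Effects were judged visually versus controls: 0 indicates none, 100 total control.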

Surinam grass = assay: Test B pre-/postemergence herbicide test; assay type: in vivo, Urochloa decumbens
How it was run: as §3

barnyardgrass [8] = assay: Test B pre-/postemergence herbicide test; assay type: in vivo, Echinochloa crus-galli; settings: for Barnyardgrass plant response rating: Postemergence, scale 0 (no effect) to 100 (complete control)
How it was run: as §2

wild oat [9] = assay: Test C postemergence herbicide test; assay type: in vivo, Avenafatua; settings: postemergence, scale 0 to 100
How it was run: as §1

[10] = 125 g ai/ha, 0 is no effect, 100 is complete control, preemergence
[11] = Postemergence, 500 g ai/ha, scale 0 (no effect) to 100 (complete control)
[12] = postemergence, 125 g ai/ha, scale 0 to 100
[13] = Postemergence, 250 g ai/ha, scale 0 to 100, 0 no effect, 100 complete control
[14] = postemergence, 31 g ai/ha, scale 0 to 100
[15] = postemergence, 62 g ai/ha, scale 0 to 100

Compound: C=CCNC(=O)c1ccc(F)c(NC(=O)c2cc(C(C)(C)C)nn2CC)c1 [Compound 430]
- Plant response rating, Ryegrass, Italian (Italian ryegrass; 125 g ai/ha): 60
- Plant response rating, Ryegrass, Italian (Italian ryegrass; 62 g ai/ha): 55
- Plant response rating (0 to 100 scale), Morningglory (morningglory; [10]): 20
- Morningglory plant response rating (morningglory; [11]): 70
- Morningglory plant response rating (morningglory; [12]): 60
- Plant response rating (0 to 100 scale), Pigweed (pigweed; [10]): 100
- Pigweed plant response rating (pigweed; [11]): 80
- Pigweed plant response rating (pigweed; [12]): 60
- Plant response rating (0 to 100 scale), Crabgrass, Large (large crabgrass; [10]): 100
- Crabgrass, Large plant response rating (large crabgrass; [11]): 50
- Crabgrass, Large plant response rating (large crabgrass; [12]): 30
- Plant response rating, Barley, Winter (winter barley; Postemergence, 125 g ai/ha, scale 0 to 100, 0 no effect, 100 complete control): 35
- Plant response rating, Barley, Winter (winter barley; [13]): 45
- Plant response rating, Barley, Winter (winter barley; [14]): 25
- Plant response rating, Barley, Winter (winter barley; postemergence, 62 g ai/ha, scale 0 to 100 (0 no effect, 100 complete control)): 30
- Plant response rating, Bromegrass, Downy (downy bromegrass; [13]): 55
- Plant response rating, Bromegrass, Downy (downy bromegrass; [12]): 50
- Plant response rating, Bromegrass, Downy (downy bromegrass; [14]): 45
- Plant response rating, Bromegrass, Downy (downy bromegrass; [15]): 45
- Ducksalad plant response rating (ducksalad): 80
- Plant response rating, Windgrass (windgrass; 125 g ai/ha): 45
- Plant response rating, Windgrass (windgrass; 62 g ai/ha): 35
- Plant response rating, Wheat (wheat [1]; 125 g ai/ha): 50
- Plant response rating, Wheat (wheat [1]; 62 g ai/ha): 45
- Blackgrass plant response rating (blackgrass [2]; [11]): 70
- Blackgrass plant response rating (blackgrass [2]; [12]): 40
- Plant response rating (0 to 100 scale), Foxtail, Giant (giant foxtail; [10]): 90
- Foxtail, Giant plant response rating (giant foxtail; [11]): 40
- Foxtail, Giant plant response rating (giant foxtail; [12]): 30
- Wheat plant response rating (wheat [3]; 500 g ai/ha, scale 0 to 100, 0 no effect, 100 complete control, preemergence): 100
- Wheat plant response rating (wheat [3]; [11]): 40
- Wheat plant response rating (wheat [3]; [12]): 30
- Plant response rating (0 to 100 scale), Velvetleaf (velvetleaf; [10]): 40
- Velvetleaf plant response rating (velvetleaf; [11]): 80
- Velvetleaf plant response rating (velvetleaf; [12]): 60
- Plant response rating (0 to 100 scale), Corn (corn; [10]): 50
- Corn plant response rating (corn; [11]): 40
- Corn plant response rating (corn; [12]): 20
- Sedge, Umbrella plant response rating [4]: 80
- Plant response rating, Foxtail, Green (green foxtail; [13]): 60
- Plant response rating, Foxtail, Green (green foxtail; [12]): 50
- Plant response rating, Foxtail, Green (green foxtail; [15]): 45
- Oat, Wild plant response rating (wild oat [5]; [11]): 50
- Oat, Wild plant response rating (wild oat [5]; [12]): 40
- Barnyardgrass plant response rating (barnyardgrass [6]): 80
- Plant response rating (0 to 100 scale), Lambsquarters (lambsquarters; [10]): 100
- Lambsquarters plant response rating (lambsquarters; [11]): 80
- Lambsquarters plant response rating (lambsquarters; [12]): 60
- Plant response rating, Blackgrass (blackgrass [7]; [13]): 65
- Plant response rating, Blackgrass (blackgrass [7]; [12]): 55
- Plant response rating, Blackgrass (blackgrass [7]; [14]): 45
- Plant response rating, Blackgrass (blackgrass [7]; [15]): 50
- Plant response rating, Canarygrass (canarygrass; [13]): 60
- Plant response rating, Canarygrass (canarygrass; [12]): 50
- Plant response rating, Canarygrass (canarygrass; [14]): 30
- Plant response rating, Canarygrass (canarygrass; [15]): 40
- Plant response rating (0 to 100 scale), Cocklebur (cocklebur; [10]): 10
- Cocklebur plant response rating (cocklebur; [11]): 90
- Cocklebur plant response rating (cocklebur; [12]): 60
- Rice plant response rating (rice): 60
- Plant response rating (0 to 100 scale), Surinam Grass (Surinam grass; [10]): 80
- Surinam Grass plant response rating (Surinam grass; [11]): 40
- Surinam Grass plant response rating (Surinam grass; [12]): 30
- Plant response rating (0 to 100 scale), Barnyardgrass (barnyardgrass [8]; [10]): 90
- Barnyardgrass plant response rating (barnyardgrass [8]; 125 g ai/ha): 30
- Barnyardgrass plant response rating (barnyardgrass [8]; 500 g ai/ha): 50
- Plant response rating, Oat, Wild (wild oat [9]; 125 g ai/ha): 60
- Plant response rating, Oat, Wild (wild oat [9]; 62 g ai/ha): 55
